Source: patent US20160375006A1, “USES OF PARALOG-SELECTIVE INHIBITORS OF GSK3 KINASES” (priority 2012, published 2016)
Read-outs that look alike come from different tables or passages of the source.

Assays:
[1] = target: T1, GSK3β (Homo sapiens, UniProt P49841); assay: biochemical
[2] = target: GSK3α (Homo sapiens, UniProt P49840); assay: biochemical
Description: Reactions were terminated by the addition of 10 mM EDTA. Substrate and product were separated electrophoretically and fluorescence intensity of the substrate and product was determined by Labchip EZ Reader II (Caliper Life Sciences, MA). The kinase activity was measured as percent conversion. The reactions were performed in duplicate for each sample. […] The results were analyzed by Genedata Assay Analyzer. The percent inhibition was plotted against the compound concentration and the IC50 value was determined from the logistic dose-response curve fitting.

[3] = target: T1, GSK3β
[4] = Caliper assay, GSK3β over GSK3α

T1 sequence (P49841 whole entry): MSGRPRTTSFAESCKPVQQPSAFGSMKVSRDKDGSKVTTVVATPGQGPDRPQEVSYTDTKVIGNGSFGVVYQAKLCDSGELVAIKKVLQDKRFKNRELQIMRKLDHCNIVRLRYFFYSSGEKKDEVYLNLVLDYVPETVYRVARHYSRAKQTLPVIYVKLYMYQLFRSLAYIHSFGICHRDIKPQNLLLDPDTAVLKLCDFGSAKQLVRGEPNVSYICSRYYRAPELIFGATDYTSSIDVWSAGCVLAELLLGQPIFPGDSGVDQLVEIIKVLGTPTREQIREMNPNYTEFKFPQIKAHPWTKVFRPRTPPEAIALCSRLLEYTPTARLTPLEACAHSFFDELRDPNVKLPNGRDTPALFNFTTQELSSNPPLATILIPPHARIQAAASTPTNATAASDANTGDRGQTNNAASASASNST
GSK3α, sequence (P49840 whole entry): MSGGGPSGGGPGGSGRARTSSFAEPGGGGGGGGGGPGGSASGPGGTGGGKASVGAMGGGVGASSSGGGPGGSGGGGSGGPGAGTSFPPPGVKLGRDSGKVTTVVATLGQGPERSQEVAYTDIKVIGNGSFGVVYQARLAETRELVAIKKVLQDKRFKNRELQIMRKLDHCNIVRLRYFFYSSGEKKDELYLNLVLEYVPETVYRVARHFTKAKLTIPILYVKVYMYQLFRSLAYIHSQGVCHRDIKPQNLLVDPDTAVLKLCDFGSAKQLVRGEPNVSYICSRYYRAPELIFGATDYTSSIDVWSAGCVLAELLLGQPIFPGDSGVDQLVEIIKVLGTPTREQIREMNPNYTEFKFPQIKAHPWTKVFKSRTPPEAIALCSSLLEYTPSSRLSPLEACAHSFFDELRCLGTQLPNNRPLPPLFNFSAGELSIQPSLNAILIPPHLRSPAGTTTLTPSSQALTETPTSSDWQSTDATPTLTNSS

CC1(C)CC(=O)C2=C(C1)Nc1n[nH]c(C3CC(F)(F)C3)c1C21CCOc2ccccc21 (racemic) [Compound 268]
IC50 [1]: 0.078 µM
IC50 [2]: 0.865 µM
GSK3β fold selectivity [3]: 11.1 fold

COc1ccccc1C1(C)C2=C(CC(C)(C)CC2=O)Nc2n[nH]c(C3CC(F)(F)C3)c21 (racemic) [Compound 253]
IC50 [1]: 3.38 µM
IC50 [2]: 12.4 µM
GSK3β fold selectivity [3, 4]: 3.7 fold

CC(C)Cc1[nH]nc2c1[C@@](C)(c1ccccc1)C1=C(CC(C)(C)CC1=O)N2 (stereo in doubt) [Compound 308]
IC50 [1]: 4.04 µM
IC50 [2]: 22.3 µM
GSK3β fold selectivity [3, 4]: 5.5 fold

CC(C)(C)Cc1[nH]nc2c1C1(CCc3ccccc31)C1=C(CC(C)(C)CC1=O)N2 (racemic) [Compound 281]
IC50 [1]: 0.004 µM
IC50 [2]: 0.082 µM
GSK3β fold selectivity [3, 4]: 20.5 fold

CC1(C)CC(=O)C2=C(C1)Nc1n[nH]c(C3CC(F)(F)C3)c1C21CCc2ccccc21 (racemic) [Compound 258]
IC50 [1]: 0.018 µM
IC50 [2]: 0.185 µM
GSK3β fold selectivity [3]: 10.3 fold

CC(C)c1[nH]nc2c1[C@](C)(c1ccccc1)C1=C(CC(C)(C)CC1=O)N2 (stereo in doubt) [Compound 297]
IC50 [1]: 0.024 µM
IC50 [2]: 0.056 µM
GSK3β fold selectivity [3, 4]: 2.3 fold

CN1C(=O)C2(C3=C(CC(C)(C)CC3=O)Nc3n[nH]c(CC(C)(C)C)c32)c2ccccc21 (stereo not drawn) [Compound 287]
IC50 [1]: 0.939 µM
IC50 [2]: 8.3 µM
GSK3β fold selectivity [3, 4]: 8.8 fold

CC[C@]1(c2ccccc2)C2=C(CC3(COC3)CC2=O)Nc2n[nH]cc21 (stereo in doubt) [Compound 238]
IC50 [1]: 12.3 µM
IC50 [2]: 26.9 µM
GSK3β fold selectivity [3, 4]: 2.2 fold

CC(C)Cc1[nH]nc2c1[C@](C)(c1ccccc1)C1=C(CC(C)(C)CC1=O)N2 (stereo in doubt) [Compound 307]
IC50 [1]: 0.041 µM
IC50 [2]: 0.237 µM
GSK3β fold selectivity [3, 4]: 5.8 fold

CC1(C)CC(=O)C2=C(C1)Nc1n[nH]c(C3CC(F)(F)C3)c1[C@]21CCc2cc(F)ccc21 [Compound 266]
IC50 [1]: 0.038 µM
IC50 [2]: 0.342 µM
GSK3β fold selectivity [3]: 9.0 fold

CC1(C)CC(=O)C2=C(C1)Nc1n[nH]c(C3CC(F)(F)C3)c1[C@@]21CCc2ccccc21 [Compound 259]
IC50 [1]: 0.02 µM
IC50 [2]: 0.087 µM
GSK3β fold selectivity [3]: 4.4 fold

COc1cc(F)ccc1[C@H]1C2=C(CC(C)(C)CC2=O)Nc2n[nH]c(C(C)C)c21 [Compound 323]
IC50 [1]: 0.02 µM
IC50 [2]: 0.271 µM
GSK3β fold selectivity [3, 4]: 13.6 fold

CC(C)c1[nH]nc2c1[C@](C)(c1ccccc1F)C1=C(CC(C)(C)CC1=O)N2 (stereo in doubt) [Compound 312]
IC50 [1]: 0.066 µM
IC50 [2]: 0.386 µM
GSK3β fold selectivity [3, 4]: 5.8 fold

CCC(C)c1[nH]nc2c1C(C)(c1ccccc1)C1=C(CC(C)(C)CC1=O)N2 (stereo not drawn) [Compound 299]
IC50 [1]: 0.09 µM
IC50 [2]: 0.277 µM
GSK3β fold selectivity [3, 4]: 3.1 fold

CC1(C)CC(=O)C2=C(C1)Nc1n[nH]c(C3CCCCC3)c1[C@]2(C)c1ccccc1 (stereo in doubt) [Compound 304]
IC50 [1]: 0.977 µM
IC50 [2]: 2.38 µM
GSK3β fold selectivity [3, 4]: 2.4 fold

CC1(C)CC(=O)C2=C(C1)Nc1n[nH]c(C3CC(F)(F)C3)c1C2(C)c1ccccc1 (racemic) [Compound 120]
IC50 [1]: 0.132 µM
IC50 [2]: 0.623 µM
GSK3β fold selectivity [3, 4]: 4.7 fold
GSK3β fold selectivity ([3]; GSK3β over GSK3α): 4.7 fold

CC(C)(C)Cc1[nH]nc2c1C(C)(c1ccccc1)C1=C(CC(C)(C)CC1=O)N2 (racemic) [Compound 271]
IC50 [1]: 0.025 µM
IC50 [2]: 0.237 µM
GSK3β fold selectivity [3, 4]: 9.5 fold

Cc1[nH]nc2c1C(C)(c1cccc(C(N)=O)c1)C1=C(CC(C)(C)CC1=O)N2 (stereo not drawn) [Compound 90, 3-(3,4,7,7-tetramethyl-5-oxo-4,5,6,7,8,9-hexahydro-2H-pyrazolo[3,4-b]quinolin-4-yl)benzamide]
GSK3β fold selectivity ([3]; GSK3β over GSK3α): 2.8 fold

Cc1[nH]nc2c1C1(CCc3ccccc31)C1=C(CC(C)(C)CC1=O)N2 (stereo not drawn) [Compound 91, 3′,7′,7′-trimethyl-2,3,6′,7′,8′,9′-hexahydrospiro[indene-1,4′-pyrazolo[3,4-b]quinolin]-5′(2′H)-one]
GSK3β fold selectivity ([3]; GSK3β over GSK3α): 2.2 fold

CC1(C)CC(=O)C2=C(C1)Nc1n[nH]c(-c3ccccc3)c1C2(C)c1ccccc1 (stereo not drawn) [Compound 121, 4,7,7-trimethyl-3,4-diphenyl-6,7,8,9-tetrahydro-2H-pyrazolo[3,4-b]quinolin-5(4H)-one]
GSK3β fold selectivity ([3]; GSK3β over GSK3α): 2.2 fold

Cc1[nH]nc2c1C1(CCCc3ccccc31)C1=C(CC(C)(C)CC1=O)N2 (stereo not drawn) [Compound 99, 3′,7′,7′-trimethyl-3,4,6′,7′,8′,9′-hexahydro-2H-spiro[naphthalene-1,4′-pyrazolo[3,4-b]quinolin]-5′(2′H)-one]
GSK3β fold selectivity ([3]; GSK3β over GSK3α): 2.6 fold

Cc1[nH]nc2c1[C@](C)(c1cccc(C#N)c1)C1=C(CC(C)(C)CC1=O)N2 [Compound 96, 3-(1,6,6,9-tetramethyl-8-oxo-4,5,6,7,8,9-hexahydro-2H-pyrazolo[3,4-b]quinolin-9-yl)benzonitrile]
GSK3β fold selectivity ([3]; GSK3β over GSK3α): 2.8 fold
